Data: US11439618B2, “Compositions and methods for lowering triglycerides” (Amarin Pharmaceuticals Ireland Limited, priority 2009, dated 2022)

Test system: subjects with Age-Associated Memory Impairment
Test: Safety and tolerability (adverse events), 6-week AAMI study
Type: in vivo, human
Experimental: All randomized subjects that received at least 1 dose of study medication were included in the Safety Population.
Safety evaluations were based on the safety population. Safety and tolerability were assessed in terms of AEs, vital signs, 12-lead ECG, clinical laboratory data, medical history, and study drug compliance. Safety and tolerability data were presented by treatment group.

For CC/C=C\C/C=C\C/C=C\C/C=C\C/C=C\CCCC(=O)OCC [Ethyl-EPA, all-cis eicosa-5,8,11,14,17-pentaenoic acid ethyl ester], the “Nausea Probably Related to the study drug” value (1 g) was “One”, the “Nausea Possibly Related to the study drug” value (“Nausea Possibly Related” for short) (1 g cohort) was “two” and the “Nausea Possibly Related” value (2 g cohort) was “one”. The SAE reported (2 g treatment group) was “One”, the “Subjects discontinued due to TEAEs” value (2 g treatment group) was 2 subjects and the “Serious adverse event (worsening epigastric chest pain), relation to study drug” value (2 g, one subject, 17 days after start, 9 days after last dose) was “unrelated to the study drug”. For the same compound, the “Nausea Possibly Related” value (4 g cohort) was “two”, the “Diarrhea, relation to the study drug” value (4 g, one subject) was “diarrhea that was Probably Related to the study drug” and the “Treatment emergent AEs (TEAEs) reported” value (ethyl-EPA treatment groups (1, 2, 4 g), placebo groups 34 events) was 105 events. The “Deaths during the study” value (whole study) was “no deaths”, the “Severity and relatedness of most TEAEs” value (whole study) was “mild in severity and unrelated to study drug” and the “TEAEs Definitely Related to the study drug” value (whole study) was “No TEAEs were Definitely Related”.
